Assay results taken from the supplement of paper PMC10307832.

What was measured:
Assay in all cases: relative viability (nuclei count vs DMSO), 5 days (fraction); higher = more cells survive
Vemurafenib + Tozasertib = compound: CCCS(=O)(=O)Nc1ccc(F)c(C(=O)c2c[nH]c3ncc(-c4ccc(Cl)cc4)cc23)c1F [Vemurafenib] + Cc1cc(Nc2cc(N3CCN(C)CC3)nc(Sc3ccc(NC(=O)C4CC4)cc3)n2)n[nH]1 [Tozasertib] (partner 0.1 µM)
Procedure, shortened: (§1)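 Dosing by pin tool came one day after lung cancer cell lines were seeded in 1536-well plates, using either one drug or a fixed anchor-drug dose plus five library-drug doses (not always all listed) in √10 steps. After 5 days, nuclei were counted on 4× images. Relative viability is treated-well nuclei count divided by vehicle-well nuclei count, and values are medians of duplicate plates.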

Alpelisib + Phenformin = compound: Cc1nc(NC(=O)N2CCC[C@H]2C(N)=O)sc1-c1ccnc(C(C)(C)C(F)(F)F)c1 [Alpelisib] + N=C(N)NC(=N)NCCc1ccccc1 [Phenformin] (partner 250 µM)
Procedure, shortened: as §1

Alpelisib + Tozasertib = compound: Cc1nc(NC(=O)N2CCC[C@H]2C(N)=O)sc1-c1ccnc(C(C)(C)C(F)(F)F)c1 [Alpelisib] + Cc1cc(Nc2cc(N3CCN(C)CC3)nc(Sc3ccc(NC(=O)C4CC4)cc3)n2)n[nH]1 [Tozasertib] (partner 0.1 µM)
Procedure, shortened: as §1

Vemurafenib + Decitabine = compound: CCCS(=O)(=O)Nc1ccc(F)c(C(=O)c2c[nH]c3ncc(-c4ccc(Cl)cc4)cc23)c1F [Vemurafenib] + Nc1ncn([C@H]2C[C@H](O)[C@@H](CO)O2)c(=O)n1 [Decitabine] (partner 2 µM)
Procedure, shortened: as §1

With UMC-11 the relative viability (Vemurafenib + Tozasertib; first compound 0.03162 µM) was 0.217, the relative viability (Vemurafenib + Tozasertib; first compound 0.1 µM) was 0.216 and the relative viability (Vemurafenib + Tozasertib; first compound 0.3162 µM) was 0.199. The relative viability (Vemurafenib + Tozasertib; first compound 1 µM) was 0.212, the relative viability (Alpelisib + Phenformin; first compound 0.04 µM) was 0.302 and the relative viability (Alpelisib + Phenformin; first compound 0.1265 µM) was 0.325. It also gave a relative viability (Alpelisib + Phenformin; first compound 0.4 µM) of 0.326, a relative viability (Alpelisib + Phenformin; first compound 1.265 µM) of 0.31 and a relative viability (Alpelisib + Phenformin; first compound 4 µM) of 0.262. For the same cell line, the relative viability (Alpelisib + Tozasertib; first compound 0.04 µM) was 0.188, the relative viability (Alpelisib + Tozasertib; first compound 0.1265 µM) was 0.198 and the relative viability (Alpelisib + Tozasertib; first compound 0.4 µM) was 0.213. It also gave a relative viability (Alpelisib + Tozasertib; first compound 1.265 µM) of 0.219, a relative viability (Alpelisib + Tozasertib; first compound 4 µM) of 0.186 and a relative viability (Vemurafenib + Decitabine; first compound 0.03162 µM) of 0.568. It also gave a relative viability (Vemurafenib + Decitabine; first compound 0.1 µM) of 0.595 and a relative viability (Vemurafenib + Decitabine; first compound 1 µM) of 0.545.
